Results: the NIST ThermoML archive (doi:10.1016/j.tca.2013.09.034)
± gives the expanded uncertainty stated by the source.

Experiment: mn = molality of the nth substance listed, in mol/kg
Settings: 101 kPa, Liquid; for speed of sound: Sing-around technique in a fixed-path interferometer; for mass density: Vibrating tube method

CCCCn1cc[n+](C)c1C.[Cl-] [1-butyl-2,3-dimethylimidazolium chloride] + O
Settings	mass density, 288.15 K [kg/m3]	mass density, 298.15 K [kg/m3]	mass density, 308.15 K [kg/m3]	speed of sound, 288.15 K [m/s]	speed of sound, 298.15 K [m/s]	speed of sound, 308.15 K [m/s]
m1 = 0.0354	999.41 ± 0.29	997.296 ± 0.3	994.233 ± 0.29	1471.7 ± 1.4	1502.4 ± 1.4	1525.2 ± 1.4
m1 = 0.0466	999.559 ± 0.29	997.434 ± 0.29	994.36 ± 0.29	1480.1 ± 1.4	1508.2 ± 1.4	1530.4 ± 1.4
m1 = 0.0575	999.712 ± 0.3	997.614 ± 0.3	994.516 ± 0.29	1484.9 ± 1.4	1512.1 ± 1.4	1533 ± 1.4
m1 = 0.0702	999.936 ± 0.3	997.784 ± 0.3	994.679 ± 0.29	1489.8 ± 1.4	1515.5 ± 1.4	1535.5 ± 1.4
m1 = 0.0932	1000.31 ± 0.3	998.103 ± 0.29	994.956 ± 0.29	1498 ± 1.4	1520.7 ± 1.4	1539.2 ± 1.4
m1 = 0.1164	1000.68 ± 0.3	998.419 ± 0.29	995.243 ± 0.29	1502.9 ± 1.4	1525.7 ± 1.4	1543.5 ± 1.4
m1 = 0.1401	1000.99 ± 0.3	998.698 ± 0.29	995.547 ± 0.29	1505.3 ± 1.4	1527.9 ± 1.4	1546.4 ± 1.4
m1 = 0.1635	1001.1 ± 0.3	998.836 ± 0.29	995.675 ± 0.29	1506.4 ± 1.4	1529.3 ± 1.4	1547.4 ± 1.4
m1 = 0.1862	1001.01 ± 0.3	998.743 ± 0.29	995.587 ± 0.29	1507.5 ± 1.4	1530.5 ± 1.4	1549.1 ± 1.4
m1 = 0.2082	1000.78 ± 0.3	998.556 ± 0.29	995.17 ± 0.3	1508.2 ± 1.4	1531.5 ± 1.4	1550 ± 1.4
m1 = 0.2329	1000.25 ± 0.3	998.134 ± 0.3	994.487 ± 0.3	1509.1 ± 1.4	1532.1 ± 1.4	1550.6 ± 1.4
